Data as given in US10703728B1, “Crystalline form of olaparib and a process for preparing the same” (SCINOPHARM TAIWAN, LTD., priority 2019, dated 2020).
In brackets after ≈: the same amount, converted by molar mass.

Columns and labels:
[1] = Solubility of olaparib at 60° C. in solvents and anti-solvents; type: physicochemical
Experimental: (§1) “Solvent” refers to a liquid substance capable of dissolving olaparib at a concentration of at least about 2.5% (w/w) at 60° C.
In the Tables above, examples of good solvents include, but are not limited to, an alcohol (e.g., methanol or ethanol), acetic acid, dimethylacetamide, dimethyl sulfoxide and pyridine. Examples of poor solvents (anti-solvents) include, but are not limited to, water, toluene, acetonitrile, cyclohexane, isopropanol, tetrahydrofuran, n-butanol, xylenes, ethyl acetate and n-heptane.

[2] = Solubility of olaparib at room temperature; type: physicochemical; details: for solubility: organic solvent or mixture
Experimental: as §1

Solubility of olaparib ([1]; ACN): <2.1 wt % | Solubility of olaparib ([1]; DMAc): >23.5 wt % | Solubility of olaparib (Summary, solvents for olaparib) ([1]; DMAc, Pyridine): >15% (w/w) | Solubility of olaparib ([1]; EA): <1.8 wt % | Solubility of olaparib ([1]; EtOH): 2.6-2.9 wt % | Solubility of olaparib (Summary, solvents for olaparib) ([1]; EtOH, MeOH): 2.5-10% (w/w) | Solubility of olaparib ([1]; IPA): <2.1 wt % | Solubility of olaparib ([1]; MeOH): 6.7-8.8 wt % | Solubility of olaparib ([1]; Pyridine): >21.5 wt % | Solubility of olaparib ([1]; THF): <1.9 wt % | Solubility of olaparib ([1]; Toluene): <1.9 wt % | Solubility of olaparib (Summary, anti-solvents for olaparib) ([1]; Toluene, ACN, Cyclohexane, IPA, THF, EA, Xylenes, n-heptane, Water, n-butanol): <2.5% (w/w) | Solubility of olaparib ([1]; Xylenes): <1.9 wt % | solubility ([1]; acetonitrile (ACN), organic solvent or mixture, ACN): < 16.2 mg/mL | Solubility of olaparib ([1]; cyclohexane): <2.1 wt % | solubility ([1]; dimethylacetamide (DMAc), organic solvent or mixture, DMAc): > 220 mg/mL | solubility ([1]; ethanol (EtOH), organic solvent or mixture, EtOH): 21 to 23 mg/mL (≈ 48.3 to 52.9 mM) | solubility ([1]; ethyl acetate (EA), organic solvent or mixture, EA): < 16.2 mg/mL | solubility ([1]; isopropanol (IPA), organic solvent or mixture, IPA): < 16.2 mg/mL | solubility ([1]; methanol (MeOH), organic solvent or mixture, MeOH): 53 to 70 mg/mL (≈ 122 to 161 mM) | Solubility of olaparib ([1]; n-butanol): <2.1 wt % | Solubility of olaparib ([1]; n-heptane): <2.4 wt % | solubility ([1]; organic solvent or mixture, Pyridine): > 210 mg/mL | solubility ([1]; organic solvent or mixture, Toluene): < 16.9 mg/mL | solubility ([1]; organic solvent or mixture, Xylenes): < 16.2 mg/mL | solubility ([1]; organic solvent or mixture, cyclohexane): < 16.2 mg/mL | solubility ([1]; organic solvent or mixture, n-butanol): < 16.9 mg/mL | solubility ([1]; organic solvent or mixture, n-heptane): < 16.2 mg/mL | solubility ([1]; tetrahydrofuran (THF), organic solvent or mixture, THF): < 16.9 mg/mL | Solubility of olaparib ([1]; water): <1.6 wt % | solubility ([1]; water): < 16.2 mg/mL | Solubility of olaparib ([2]; AcOH): >20.0 wt % | Solubility of olaparib (Summary, solvents for olaparib) ([2]; AcOH, DMSO): >15% (w/w) | Solubility of olaparib ([2]; DMSO): >19.1 wt % | solubility ([2]; acetic acid (AcOH), AcOH): > 210 mg/mL | solubility ([2]; dimethyl sulfoxide (DMSO), DMSO): > 210 mg/mL
SMILES: O=C(c1cc(Cc2n[nH]c(=O)c3ccccc23)ccc1F)N1CCN(C(=O)C2CC2)CC1 [olaparib, 4-[(3-[(4-cyclopropylcarbonyl)piperazin-4-yl]carbonyl)-4-fluorophenyl]methyl(2H)phthalazin-1-one]
